Results from patent publication US11944605B2, “Rapamycin analogs and uses thereof” (Janssen Pharmaceutica NV, priority 2018, dated 2024).
Values after ≈ are worked out from the molar mass of the structure shown. “Also recorded” adds a separate entry of the source.

Tests used:
[1] = system: mTORC1 pathway in tuberous sclerosis 2 (TSC2) positive (TSC+/+) MEF cells; assay: Western blot, mTORC1 pathway in TSC+/+ MEF cells; type: cell-based, mouse; settings: 24 hours
Protocol: (§1) The methods employed were substantially similar to those described above. Compounds were evaluated in PC3 cells, Jurkat cells, wild-type mouse embryotic fibroblast (MEF) cells, tuberous sclerosis 2 (TSC2) negative (TSC −/−) MEF cells, and tuberous sclerosis 2 (TSC2) positive (TSC +/+) MEF cells. Cells were incubated with compounds of the present invention for various time periods (e.g., 5 minutes, 15 minutes, 30 minutes, 90 minutes, 24 hours, or 48 hours), and evaluated according to known methodologies, such as those herein described.

[2] = system: pAKT (p-Akt 1/2/3 (Ser473)) in MCF-7 cells; assay: AlphaLISA Ultra pAKT Assay; type: cell-based; settings: Homo sapiens, 1.5 h; MCF7 cells, 90 min
mTORC1 over mTORC2 = assay: mTORC1 selectivity over mTORC2 at 24 hrs (Western blot based pS6K1 and pAKT assay); type: cell-based; settings: 24 hrs
[3] = system: mTORC2 (Akt phosphorylation) in TSC+/+ MEF cells; assay: Western blot, mTORC2 pathway (pAkt) in TSC+/+ MEF cells; type: cell-based, mouse; settings: 24 hours
Protocol: as §1

[4] = system: pS6K1 (p-p70 S6 Kinase (Thr389)) in MCF-7 cells; assay: AlphaLISA Ultra pS6K1 Assay; type: cell-based; settings: Homo sapiens, 1.5 h; MCF7 cells, 90 min
Method in brief: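 AlphaLISA Ultra read-out (acceptor beads 2 h, then donor beads 2 h) on thawed lysates of MCF-7 cells. Cells had 20–24 h after seeding and a 2 h medium change, then 90 min of compound exposure at 0.5% final DMSO, with lysates stored at −80 °C.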

[5] = Solubility in 100 mM phosphate buffer (pH 7.4); type: physicochemical; settings: pH 7.4, aqueous buffer
Text: The compound numbers correspond to the compound numbers in Table 1.

[6] = system: mTORC2 pathway (Akt phosphorylation) in PC3 cells; assay: Western blot, mTORC2 pathway (pAkt) in PC3 cells; type: cell-based; settings: 24 hours
Protocol: (§2) Western Blot Based pS6K1 and pAKT Assay at 24 and 48 Hour Timepoints
(§3) 1. Seed six well plate with 500,000 PC3 cells per well and incubate for 20˜24 hour.
(§4) 2. Add compounds into the cell plate. Incubate for 24 to 48 hours.
(§5) 4. Plate is placed on ice and the media is removed via aspiration. The wells are washed with 1 mL of 1× PBS and then fully aspirated.
(§6) 5. 110 μL of 1% Triton Lysis Buffer is added and each well is scraped vigorously.
(§7) 6. Cell homogenates are transferred to 1.5 mL eppendorf tubes on ice and spun down at 4° C. for 10 minutes at 10,000 rpm.
(§8) 9. The membranes were washed 3× with TBS-T with a 5 minute incubation between each wash then incubated with secondary antibody (LiCor IRDye 800 Donkey Anti Rabbit) for at least 30 minutes.
(§9) 10. The membranes were washed 3× with TBS-T with a 5 minute incubation between each wash.
(§10) 11. The gels were then incubated for 5 minutes with PBS at room temperature then imaged using a Li-Cor.
as §1

[7] = system: mTORC1 pathway (pS6K1 T389) in PC3 cells; assay: Western blot, mTORC1 pathway (pS6K1) in PC3 cells; type: cell-based; settings: PC3 cells, 24 hours
Protocol: as §2, §3, §4, §5, §6, §7, §8, §9, §10, §1

[8] = system: 4E-BP1 phosphorylation in PC3 cells; assay: Western blot, 4E-BP1 phosphorylation in PC3 cells; type: cell-based; settings: 24 hours

IC50 [2] [nM] | IC50 [4] [nM] | solubility [5] [µM] | SMILES | inhibition of the mTORC1 pathway [1] | mTORC1 selective @ 24 hrs (mTORC1 over mTORC2) | inhibition of mTORC2 (Akt phosphorylation) [3] | inhibition of mTORC2 (Akt phosphorylation) [6] | inhibition of the mTORC1 pathway [7] | inhibition of 4E-BP1 phosphorylation [8]
≥ 100 | 0.1 to 1 | 30 to 60 (≈ 29.6 to 59.3 µg/mL) | CO[C@@H]1C[C@H](C[C@@H](C)[C@@H]2CC(=O)[C@H](C)/C=C(\C)[C@@H](O)[C@@H](OC)C(=O)[C@H](C)C[C@H](C)/C=C/C=C/C=C(\C)[C@@H](OCCOCCO)C[C@@H]3CC[C@@H](C)[C@@](O)(O3)C(=O)C(=O)N3CCCC[C@H]3C(=O)O2)CC[C@H]1O [I-20] | moderate concentration dependent inhibition | YES | do not inhibit |  |  | 
 | 1 to 10 |  | CO[C@@H]1C[C@H](C[C@@H](C)[C@@H]2CC(=O)[C@H](C)/C=C(\C)[C@@H](O)[C@@H](OC)C(=O)[C@H](C)C[C@H](C)/C=C/C=C/C=C(\C)C(OCCOCCOCCOCCOCCOCCOCCOCCOCCO)C[C@@H]3CC[C@@H](C)[C@@](O)(O3)C(=O)C(=O)N3CCCC[C@H]3C(=O)O2)CC[C@H]1O (stereo partly drawn) [I-97, (21E,23E,25E,26E,46R,47S,48R,49R,51S,53S,56S,57R,58R,67R)-57, 67-dihydroxy-55-[2-[2-[2-[2-[2-[2-[2-[2-(2-hydroxyethoxy)ethoxy]ethoxy]ethoxy]ethoxy]ethoxy]ethoxy]ethoxy]ethoxy]-56-[(1R)-2-[(1S,3R,4R)-4-hydroxy-3-methoxy-cyclohexyl]-1-methyl-ethyl]-58-methoxy-46, 47,48,49,59,60-hexamethyl-78,79-dioxa-68-azatricyclohexatriaconta-21, 23,25(59),26(60)-tetraene-61,62,63,64,65-pentone] | modest concentration dependent inhibition | YES | do not inhibit | do not inhibit |  | 
 | 10 to 100 |  | CO[C@@H]1C[C@H](C[C@@H](C)[C@@H]2CC(=O)[C@H](C)/C=C(\C)[C@@H](O)[C@@H](OC)C(=O)[C@H](C)C[C@H](C)/C=C/C=C/C=C(\C)C(OCCS(=O)(=O)CCS(=O)(=O)CCO)C[C@@H]3CC[C@@H](C)[C@@](O)(O3)C(=O)C(=O)N3CCCC[C@H]3C(=O)O2)CC[C@H]1O (stereo partly drawn) [I-102, (21E,23E,25E,26E,34R,35S,36R,37R,39R,41S,44S,45R,46R,55S)-45, 55-dihydroxy-43-[2-[2-(2-hydroxyethylsulfonyl)ethylsulfonyl]ethoxy]-44-[(1S)-2-[(1S,3R, 4R)-4-hydroxy-3-methoxy-cyclohexyl]-1-methyl-ethyl]-46-methoxy-34,35,36,37,47,48-hexamethyl-70, 71-dioxa-56-azatricyclohexatriaconta-21,23,25(47),26(48)-tetraene-49,50,51,52,53-pentone] |  | YES |  | do not inhibit | strong inhibition | no inhibition
 | 0.1 to 1 |  | CO[C@@H]1C[C@H](C[C@@H](C)[C@@H]2CC(=O)[C@H](C)/C=C(\C)[C@@H](O)[C@@H](OC)C(=O)[C@H](C)C[C@H](C)/C=C/C=C/C=C(\C)C(OCP(=O)(CO)CO)C[C@@H]3CC[C@@H](C)[C@@](O)(O3)C(=O)C(=O)N3CCCC[C@H]3C(=O)O2)CC[C@H]1O (stereo partly drawn) [I-106, (21E,23E,25E,26E,31R,32S,33R,34R,36S,38S,41S,42R,43R,52R)-40-[bis(hydroxymethyl)phosphorylmethoxy]-42,52-dihydroxy-4I-[(1R)-2-[(1S,3R,4R)-4-hydroxy-3-methoxy-cyclohexyl]-1-methyl-ethyl]-43-methoxy-31, 32,33,34,44,45-hexamethyl-65,66-dioxa-53-azatricyclohexatriaconta-21, 23,25(44),26(45)-tetraene-46,47,48,49,50-pentone] |  | YES |  | do not inhibit | strong inhibition | no inhibition
 | 0.1 to 1 |  | CO[C@@H]1C[C@H](C[C@@H](C)[C@@H]2CC(=O)[C@H](C)/C=C(\C)[C@@H](O)[C@@H](OC)C(=O)[C@H](C)C[C@H](C)/C=C/C=C/C=C(\C)[C@@H](OCCOCCOCCO)C[C@@H]3CC[C@@H](C)[C@@](O)(O3)C(=O)C(=O)N3CCCC[C@H]3C(=O)O2)CC[C@H]1OCCO [I-110, (21E,23E,25E,26E,36R,37S,38R,39R,41S,43S,45S,46S,47R,48R,57R)-47, 57-dihydroxy-45-[2-[2-(2-hydroxyethoxy)ethoxy]ethoxy]-46-[(1R)-2-[(1S,3R, 4R)-4-(2-hydroxyethoxy)-3-methoxy-cyclohexyl]-1-methyl-ethyl]-48-methoxy-36,37,38,39,49,50-hexamethyl-68, 69-dioxa-58-azatricyclohexatriaconta-21,23,25(49),26(50)-tetraene-51, 52,53,54,55-pentone] | moderate concentration dependent inhibition | YES | do not inhibit |  |  | 
 | 1 to 10 |  | CO[C@@H]1C[C@H](C[C@@H](C)[C@@H]2CC(=O)[C@H](C)/C=C(\C)[C@@H](O)[C@@H](OC)C(=O)[C@H](C)C[C@H](C)/C=C/C=C/C=C(\C)C(OC[C@H]3CO[C@@H](CO)CO3)C[C@@H]3CC[C@@H](C)[C@@](O)(O3)C(=O)C(=O)N3CCCC[C@H]3C(=O)O2)CC[C@H]1O (stereo partly drawn) [I-118, (23E,25E,27E,28E,32R,33S,34R,35R,36S,39S,41S,45R,46R,55R)-45, 55-dihydroxy-41-[(1R)-2-[(1S,2R,3R)-3-hydroxy-2-methoxy-cyclohexyl]-1-methyl-ethyl]-40-[[(25, 5S)-5-(hydroxymethyl)-1,4-dioxan-2-yl]methoxy]-46-methoxy-32,33,34,35,47,48-hexamethyl-68, 69-dioxa-56-azatricyclohexatriaconta-23,25,27(47),28(48)-tetraene-49,50,51,52,53-pentone] |  | YES |  | do not inhibit | moderate concentration dependent inhibition; also recorded: strong inhibition | no inhibition

SMILES | IC50 [2] [nM] | IC50 [4] [nM] | solubility [5] [µM] | inhibition of the mTORC1 pathway [1] | mTORC1 selective @ 24 hrs (mTORC1 over mTORC2) | inhibition of mTORC2 (Akt phosphorylation) [3] | inhibition of mTORC2 (Akt phosphorylation) [6] | inhibition of the mTORC1 pathway [7] | inhibition of 4E-BP1 phosphorylation [8]
CO[C@@H]1C[C@H](C[C@@H](C)[C@@H]2CC(=O)[C@H](C)/C=C(\C)[C@@H](O)[C@@H](OC)C(=O)[C@H](C)C[C@H](C)/C=C/C=C/C=C(\C)C(OCCCCCO)C[C@@H]3CC[C@@H](C)[C@@](O)(O3)C(=O)C(=O)N3CCCC[C@H]3C(=O)O2)CC[C@H]1O (stereo partly drawn) [I-113, (21E,23E,25E,26E,33R,34S,35R,36R,38S,40S,43S,44R,45R,54R)-44, 54-dihydroxy-43-[(1R)-2-[(1S,3R,4R)-4-hydroxy-3-methoxy-cyclohexyl]-1-methyl-ethyl]-42-(5-hydroxypentoxy)-45-methoxy-33, 34,35,36,46,47-hexamethyl-65,66-dioxa-55-azatricyclohexatriaconta-21, 23,25(46),26(47)-tetraene-48,49,50,51,52-pentone] |  | 0.1 to 1 |  |  | YES |  | do not inhibit | strong inhibition | no inhibition
